Paper PMC8949375, “Design, Green Synthesis and Tailoring of Vitamin E TPGS Augmented Niosomal Nano-Carrier of Pyrazolopyrimidines as Potential Anti-Liver and Breast Cancer Agents with Accentuated Oral Bioavailability” (Pharmaceuticals, 2022)

What was measured:
[1] = system: HepG2, MCF-7, A-549 and CaCo-2 cell lines; test: MTT cytotoxicity assay, summary over all tested cell lines; assay type: cell-based, human; details: in words
Text: • HepG2 [HEPG2] (ATCC® HB-8065™, Manassas, VA, USA) epithelial hepatocellular carcinoma was derived from the liver tissue of a person (a well-differentiated hepatocellular carcinoma). The human HCC cell line, HEPG-2, was obtained from the American Type Culture Collection and used to evaluate the effects of the following drugs. MCF-7(ATCC® HTB-22™, Manassas, VA, USA) breast cancer cells were derived from mammary gland or breast at a metastatic site. The human MCF-7 cell line, MCF-7, was obtained from the American Type Culture Collection and used to evaluate the effects of the following drugs. • Caco 2 [Caco2] (ATCC® HTB 37™, Manassas, VA, USA) epithelial colorectal adenocarcinoma was derived from the colon at a metastatic site. The human Caco-2 cell line, Caco-2, was obtained from the American Type Culture Collection and used to evaluate the effects of the following drugs. A549 (ATCC® CCL-185™, Manassas, VA, USA), epithelial-like lung carcinoma, was derived from lung tissue at a metastatic site. The human A549 cell line, A549, was obtained from the American Type Culture Collection and used to evaluate the effects of the following drugs.
HEPG2, A549, MCF-7 and Caco-2 cells were maintained in a monolayer culture in a T-25 flask at 5% CO2 and 37 °C in DMEM (Lonza, Verviers, Belgium) and supplemented with 10% (v/v) FBS (Sigma-Aldrich Co. LLC., Burlington, VT, USA). Penicillin/streptomycin (Gibco®, Grand Island, NY, USA) was applied at 100 units/mL and 100 µg/mL, respectively.
Growth inhibition was determined by classic MTT assay. In brief, HEPG2, A549, MCF-7 and Caco-2 cells were added to a cell culture MTT assay plate at a concentration of 5 × 10^3 cells/well in 1640 medium and cultured overnight. The different treatments were added on day 1 according to the calculated doses except on the control well and standard, then incubated for 24 h. Measurement was achieved using a microplate reader (Model 550, Bio-Rad, Hercules, CA, USA).

HepG2 cell line = test: MTT cytotoxicity assay, HepG2; assay type: cell-based; details: Homo sapiens, read-out: IC50 HepG2 Livercarcinoma
Text: (§1) The human HCC cell line, HEPG-2, was obtained from the American Type Culture Collection and used to evaluate the effects of the following drugs. MCF-7(ATCC® HTB-22TM, Manassas, VA, USA) breast cancer cells were derived from mammary gland or breast at a metastatic site. […] The human Caco-2 cell line, Caco-2, was obtained from the American Type Culture Collection and used to evaluate the effects of the following drugs. […], Manassas, VA, USA), epithelial-like lung carcinoma, was derived from lung tissue at a metastatic site. The human A549 cell line, A549, was obtained from the American Type Culture Collection and used to evaluate the effects of the following drugs. […] LLC., Burlington, VT, USA). Penicillin/streptomycin (Gibco®, Grand Island, NY, USA) was applied at 100 units/mL and 100 μg/mL, respectively. Growth inhibition was determined by classic MTT assay. In brief, HEPG2, A549, MCF-7 and Caco-2 cells were added to a cell culture MTT assay plate at a concentration of 5 × 10^3 cells/well in 1640 medium and cultured overnight. The different treatments were added on day 1 according to the calculated doses except on the control well and standard, then incubated for 24 h.

[2] = system: VEGF protein expression level in MCF-7 cell line; test: VEGF ELISA in MCF-7 cell culture supernatant; assay type: cell-based, human; parameters: concentration or dose not given beside the values; details: MCF-7, ELISA, compared to control
Protocol: (§2) Total protein was assayed using the method described by Bradford. The VEGF ELISA Assay Kit (VEGF) and ELISA Kit, (#VGF31-[…]) were purchased from (Eagle Biosciences CO., LTD, Amherst, NH, USA). The kit is a sandwich enzyme immunoassay for the in vitro quantitative determination of VEGF concentrations in cell culture supernates, serum and plasma according to the manufacturer's instructions.

MCF-7 cell line = test: MTT cytotoxicity assay, MCF-7; assay type: cell-based; details: Homo sapiens, MCF7, read-out: IC50 MCF-7 Breast Cancer
Text: as §1

[3] = system: VEGFR-2 protein expression level in MCF-7 cell line; test: Human VEGF receptor-2 ELISA in MCF-7; assay type: cell-based; parameters: concentration or dose not given beside the values; details: MCF-7, ELISA, compared to control
Protocol: (§3) Total protein was assayed using the method described by Bradford. The Human VEGF receptor-2 ELISA Kit (ab213476), (96 tests) was purchased from (abcam®, Waltham, MA, USA). The kit is a sandwich enzyme immunoassay for the in vitro quantitative measurement of human VEGFR-2 in tissue homogenates, cell lysates and other biological fluids according to the manufacturer’s instructions.

[4] = system: VEGFR-2 protein expression level in HepG2 cell line; test: Human VEGF receptor-2 ELISA in HepG2; assay type: cell-based; parameters: concentration or dose not given beside the values; details: compared to control
Protocol: as §3

[5] = system: VEGF protein expression level in HepG2 cell line; test: VEGF ELISA in HepG2 cell culture supernatant; assay type: cell-based, human; parameters: concentration or dose not given beside the values; details: compared to control
Protocol: as §2

SMILES | melting point | cytotoxic effect on the four cancer cell lines [1] | further results
COc1ccc(-c2nc3c(N=Nc4ccc(C)cc4)c(N)nn3c(N)c2C#N)cc1 [Compound 6, 2,7-Diamino-5-(4-Methoxyphenyl)-3-(4-Tolyldiazenyl)Pyrazolo[1,5-a]Pyrimidine-6-Carbonitrile] | 230 to 232 °C | no cytotoxic effects even at high doses | –
Cc1ccc(N=Nc2c(N)nn3c2NC(=O)C(=NNc2ccc(S(=O)(=O)N=C(N)N)cc2)C3=O)cc1 [Compound 5, 4-(2-(2-Amino-5,7-Dioxo-3-(4-Tolyldiazenyl)-4,5-Dihydropyrazolo[1,5-a]Pyrimidin-6(7H)-Ylidene)Hydrazinyl)-N-(Diaminomethylene)Benzenesulfonamide] | 278 to 280 °C | no cytotoxic effects even at high doses | –
Cc1ccc(N=Nc2c(N)nn3c(N)c(N=Nc4cccc([N+](=O)[O-])c4)c(O)nc23)cc1 [Compound 2b, 2,7-diamino-6-((3-nitrophenyl)diazenyl)-3-(4-tolyldiazenyl)pyrazolo[1,5-a]pyrimidin-5-ol] | 234 to 236 °C | no cytotoxic effects even at high doses | –
CNC(=O)c1cc(Oc2ccc(NC(=O)Nc3ccc(Cl)c(C(F)(F)F)c3)cc2)ccn1 [Sorafenib, reference compound] | – | – | IC50 (HepG2 cell line): 6000 nM
CO[C@H]1C[C@@H]2CC[C@@H](C)[C@@](O)(O2)C(=O)C(=O)N2CCCC[C@H]2C(=O)O[C@H]([C@H](C)C[C@@H]2CC[C@@H](OCCO)[C@H](OC)C2)CC(=O)[C@H](C)/C=C(\C)[C@@H](O)[C@@H](OC)C(=O)[C@H](C)C[C@H](C)/C=C/C=C/C=C/1C [Everolimus, reference compound] | – | – | VEGF 24 h % Inhibition ([2]; 24 h): 50%; VEGF 72 h % Inhibition ([2]; 72 h): 62.5%; IC50 (MCF-7 cell line): 3000 nM; VEGFR-2 24 h % Inhibition ([3]; 24 h): 40%; VEGFR-2 72 h % Inhibition ([3]; 72 h): 50%
CNC(=O)c1cc(Oc2ccc(NC(=O)Nc3ccc(Cl)c(C(F)(F)F)c3)c(F)c2)ccn1 [Regorafenib, reference compound] | – | – | VEGFR-2 24 h % Inhibition ([4]; 24 h): 62%; VEGFR-2 72 h % Inhibition ([4]; 72 h): 55.6%; VEGF 24 h % Inhibition ([5]; 24 h): 70.8%; VEGF 72 h % Inhibition ([5]; 72 h): 75.4%; IC50 (HepG2 cell line): 3000 nM

Now from value to compound, other results behind:

melting point | SMILES | cytotoxic effect on the four cancer cell lines [1] | further results
272 to 274 °C | Cc1ccc(N=Nc2c(N)nn3c(C)c(N=Nc4ccc(S(=O)(=O)N=C(N)N)cc4)c(=O)[nH]c23)cc1 [Compound 4a, 4-((2-Amino-7-methyl-5-oxo-3-(4-tolyldiazenyl)-4,5-dihydropyrazolo[1,5-a]pyrimidin-6-yl)diazenyl)-N-(diaminomethylene)benzenesulfonamide] | no cytotoxic effects even at high doses | –
256 to 258 °C | Cc1ccc(N=Nc2c(N)nn3c(C)c(N=Nc4cccc([N+](=O)[O-])c4)c(C)nc23)cc1 [Compound 3b, 5,7-Dimethyl-6-((3-nitrophenyl)diazenyl)-3-(4-tolyldiazenyl)pyrazolo[1,5-a]pyrimidin-2-amine] | no cytotoxic effects even at high doses | –
250 to 252 °C | Cc1ccc(N=Nc2c(N)nn3c(C)c(N=Nc4ccc(S(=O)(=O)N=C(N)N)cc4)c(C)nc23)cc1 [Compound 3a, 4-((2-Amino-5,7-dimethyl-3-(4-tolyldiazenyl)pyrazolo[1,5-a]pyrimidin-6-yl)diazenyl)-N-(diaminomethylene)benzenesulfonamide] | no cytotoxic effects even at high doses | –
